Results on two molecules are retold here after patent publication US11352607B2, “Genomic engineering of pluripotent cells” (Fate Therapeutics, Inc., priority 2015, dated 2022).

Assay [1] concerns iCasp9-integrated iPSCs. The experiment in a line: AP1903-induced cell death of iCasp9-targeted hiPSCs (7AAD staining, flow cytometry). It counts as cell-based, human. The following applies: 24 hrs. (In general: Flow cytometry measures light scatter and fluorescence of single cells or particles in a stream.)
Experimental: The sorted GFP (neg), GFP (low) and GFP (hi) populations were expanded, and then were subjected to AP1903 treatment (10 nM or 100 nM), or DMSO as control, for 24 hrs. The treated cells were harvested and stained with 7AAD and analyzed by flow cytometry. The 7AAD negative cells (presumably live cells) percentage were plotted for each treatment.
Expanded puro-resistant iPSCs were then subjected to AP1903 (or DMSO control) treatment for 24 hrs. The treated cells were harvested and stained with 7AAD and analyzed by flow cytometry. The 7AAD negative cells, i.e., live cells, percentage were plotted for each treatment.
Assay [2] deals with 293T cells. Kind of assay: AP1903-induced cell death of iCasp9-targeted 293T cells (7AAD). The following applies: 10 nM or 120 nM, 24 hrs; 293T cells with CMV-driven iCasp9 at AAVS1. It counts as cell-based. The text has this: The chemical inducer of dimerization (CID; AP1903) was purchased from Medchemexpress (Monmouth Junction, N.J.). Twenty-four hours after CID exposure, the cells were harvested and stained with 7-amino actinomycin D (7-AAD) according to the manufacturer's instruction (BD Biosciences). The percentage of 7-AAD positive cells were quantified as dead cells by flow cytometry (Guava, EMD Millipore, Billerica, Mass.) and analyzed with flowjo software.
A donor construct encompassing CMV-driven iCasp9 (AAVS1-G1.0) was designed to target the AAVS1 locus (FIG. 1A) and to integrate the Casp9 suicide gene to 293T cells. The donor construct also comprise GFP and puromycin genes, the expression of which are driven by AAVS1 endogenous promoter once the targeted insertion takes place (FIG. 1A). 293T cells were transfected with ZFNs specific to AAVS1 locus and the donor construct AAVS1-G1.0. Three days after transfection, the puromycin selection was started and continued for 12 days. The puro-selected population was analyzed by flow cytometry for GFP expression, and a range of GFP expression levels were observed. It was observed that about 82% of the puro-selected cell population expressed GFP (FIG. 1B). […] The treated cells were then harvested and stained with 7AAD, which selectively stains membrane-compromised dying cells, and analyzed by flow cytometry. […]

The test system of assay [3] is CAG-C38 iCasp9 iPSC clone with sr39TK at H11 locus. The experiment in a line: Dual suicide gene safe guard system: AP1903 and GCV treatment in vitro. It counts as cell-based, human. The following applies: 10 nM AP1903 two days; 25 μg/mL GCV nine days.
Text: In addition to CAG-iCasp9 integrated into AAVS1 locus, CAG-sr39TK was integrated into H11 safe harbor in CAG-C38 clonal iPSC using targeted insertion method described herein.

Each structure is given as a SMILES string.

Turning to `CC[C@H](C(=O)N1CCCC[C@H]1C(=O)O[C@H](CCc1ccc(OC)c(OC)c1)c1cccc(OCC(=O)NCCNC(=O)COc2cccc([C@@H](CCc3ccc(OC)c(OC)c3)OC(=O)[C@@H]3CCCCN3C(=O)[C@@H](CC)c3cc(OC)c(OC)c(OC)c3)c2)c1)c1cc(OC)c(OC)c(OC)c1` [AP1903], the “cell death mediated by AP1903” value in assay [1] (10 nM or 100 nM, hiPSCs with CMV-driven iCasp9, GFP (neg), GFP (low), GFP (hi) populations) is “not detected”; in assay [1] (hiPSCs with iCasp9 under endogenous AAVS1 promoter) it was “not detected”. The “cell death post AP1903 treatment” value in assay [2] is reported as “Significant cell death was detected”. The “inducible killing of CAG-C38 iCasp9 clone with sr39TK at H11” value in assay [3] was “inducible killing of most cells but rare cells remained”.

With `Nc1nc(O)c2ncn(COC(CO)CO)c2n1` [GCV, Ganciclovir], the “inducible killing of CAG-C38 iCasp9 clone with sr39TK at H11” value in assay [3] is “expanded GCV-refractory cells”.
